Results as given in BindingDB's records for doi:10.1021/jm800739m (University of Southern California, 2009).

Target: DNA-(apurinic or apyrimidinic site) endonuclease (Homo sapiens, UniProt P27695)
Assay: APE1 Inhibition Assay
Settings: pH 7.5; 30 °C
Method: To determine the extent of abasic residue cleavage by APE1, recombinant APE1 was preincubated with the potential inhibitors in reaction buffer. Then, the 5-end 32P-labeled oligonucleotide substrate was added. The conversion of incision product was quantitated using PhosphorImager / ImageQuant 5.2 system. The IC50 values were determined by plotting the logarithm of drug concentration against percent inhibition of enzymatic activity. The optimum concentration of APE1 protein in the assay is the concentration at which there is complete conversion of the abasic-site containing oligonucleotide substrate to its cleaved product without subsequent exonuclease activity.

DNA-(apurinic or apyrimidinic site) endonuclease, sequence (P27695 whole entry): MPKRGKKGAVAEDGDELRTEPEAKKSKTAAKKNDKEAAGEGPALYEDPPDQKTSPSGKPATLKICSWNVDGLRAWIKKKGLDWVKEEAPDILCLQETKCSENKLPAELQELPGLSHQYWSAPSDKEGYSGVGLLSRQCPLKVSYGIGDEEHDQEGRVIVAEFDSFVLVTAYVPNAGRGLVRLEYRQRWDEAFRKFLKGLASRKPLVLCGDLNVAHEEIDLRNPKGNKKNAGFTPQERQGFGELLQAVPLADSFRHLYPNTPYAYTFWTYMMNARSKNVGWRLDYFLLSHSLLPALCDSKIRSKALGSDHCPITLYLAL

For `O=C(O)c1ccc(Sc2ccc(S(=O)(=O)c3ccc(C(=O)O)c(C(=O)O)c3)cc2)cc1` [4-({4-[(4-carboxyphenyl)sulfanyl]benzene}sulfonyl)benzene-1,2-dicarboxylic acid], the IC50 was 4 µM.
